# Data: US20240390382A1, “METHOD FOR TREATING CANCER” (THE CHILDREN'S MEDICAL CENTER CORPORATION, priority 2021, published 2024)
# Entries after “also recorded” stand apart in the source; their conditions may differ.
# How the values were obtained:
# [1] = tested on: key leading edge genes (MLLT3 regulated) in CTR9 edited cells; assay: qRT-PCR analysis of key leading edge genes in CTR9 edited cells; type: cell-based, human; details: two independent guides, inhibitor at the concentration of IC50, vs DMSO
# Experimental: HEK293T cells are cultured in DMEM supplemented with 10% FBS and 1× penicillin/streptomycin. Human CD34 HSPCs were purchased from Fred Hutchinson Cancer Institute and cultured in StemSpan serum free culture medium (StemCell Technologies) supplemented with 1×CC100, 2 mM L-glutamine, 100 ng/mL TPO, 1×UM171 and 1× penicillin/streptomycin. For RNP based CRISPR editing of CD34+HSPCs, chemically synthesized gRNA and Cas9 protein were mixed and set at room temperature for 10 mins to allow the formation of deliverable RNP. The assembled RNP complexes were then delivered into CD34+HSPCs by Lonza 4D Nucleofector with program DZ-100. 48-72 hrs after nucleofection, cells were harvested for genomic DNA and the edited region was PCR amplified and the editing efficiency was analyzed by the ICE analysis from Synthego. Edited CD34+HSPCs were allowed to expand in the culture medium and harvested twice at day 3 and day 6 post-nucleofection. Harvested cells were washed in cold PBS and stained by HSC phenotyping antibody cocktail, which is composed of Brilliant Violet 421 anti-CD34, APC-H7 anti-CD45RA, PE-Cy7 anti-CD90, BB700 anti-CD133, PE anti-EPCR and APC anti-ITGA3 in ice cold FACS buffer (PBS+2% FBS) at 1:60 for 30 minutes in ice. Stained cells were then analyzed by BD LSRII flow cytometer. […]
# RNA from HSPCs was harvested by Qiagen RNeasy kit and quantified by nanodrop. […]
# CTR9 edited CD34+HSPCs = assay: HSC phenotyping (flow cytometry) of CTR9 edited CD34+ HSPCs, chemical rescue experiment; type: cell-based, human; details: inhibitor used at the concentration of IC50, vs DMSO
# Experimental: HEK293T cells are cultured in DMEM supplemented with 10% FBS and 1× penicillin/streptomycin. Human CD34 HSPCs were purchased from Fred Hutchinson Cancer Institute and cultured in StemSpan serum free culture medium (StemCell Technologies) supplemented with 1×CC100, 2 mM L-glutamine, 100 ng/mL TPO, 1×UM171 and 1× penicillin/streptomycin. For RNP based CRISPR editing of CD34+HSPCs, chemically synthesized gRNA and Cas9 protein were mixed and set at room temperature for 10 mins to allow the formation of deliverable RNP. The assembled RNP complexes were then delivered into CD34+HSPCs by Lonza 4D Nucleofector with program DZ-100. 48-72 hrs after nucleofection, cells were harvested for genomic DNA and the edited region was PCR amplified and the editing efficiency was analyzed by the ICE analysis from Synthego. Edited CD34+HSPCs were allowed to expand in the culture medium and harvested twice at day 3 and day 6 post-nucleofection. Harvested cells were washed in cold PBS and stained by HSC phenotyping antibody cocktail, which is composed of Brilliant Violet 421 anti-CD34, APC-H7 anti-CD45RA, PE-Cy7 anti-CD90, BB700 anti-CD133, PE anti-EPCR and APC anti-ITGA3 in ice cold FACS buffer (PBS+2% FBS) at 1:60 for 30 minutes in ice. Stained cells were then analyzed by BD LSRII flow cytometer. For the chemical rescue experiment, CDK9 inhibitors (LDCO000067 and AZD4573) and the YEATS domain inhibitor of ENL/ILLT3 (SR-0813) were used at the concentration of IC50.
smiles,measurement,setting,value
O=C(NC1CCC1)c1ccc2nc(-c3cccc(NS(=O)(=O)NCCN4CCCCC4)c3)cn2c1 [SR-0813],expression of key upregulated target genes (leading edge genes),[1],downregulated many of the key upregulated target genes
same,CTR9-perturbation-mediated HSC expansion (partial loss of CTR9),CTR9 edited CD34+HSPCs; CTR9 edited CD34+ HSPCs,rescues HSC expansion phenotype; also recorded: completely suppressed
same,impact on the bulk HSPC population (CD34+CD45RA-),CTR9 edited CD34+HSPCs; primary human HSPCs,without a major impact on the bulk HSPC population
same,phenotypic LT- and ST-HSC expansion,CTR9 edited CD34+HSPCs; primary human HSPCs,suppression of phenotypic LT- and ST-HSC expansion occurred
